This note sets out measurements from US11491185B2, “Intra-mammary teat sealant formulation and method of using same to reduce or eliminate visual defects in aged cheeses” (Wisconsin Alumni Research Foundation, priority 2006, dated 2022).

This data set is described as follows: Laboratory-induced black spot defect: cheese with ITS components exposed to aged cheese volatiles or hydrogen sulfide gas. The class given is physicochemical. The conditions noted are these: blended in cheese, exposed to authentic cheese volatiles or H2S gas. The protocol:
FIGS. 4A and 4B are images of laboratory-induced black spot defects. In FIG. 4A, the various components of “ORBESEAL”-brand intra-mammary teat sealant (ITS) were blended with cheese and each spot was photographed immediately. […] Sites 4 and 5 contain bismuth subnitrate and the intact “ORBESEAL”-brand ITS formulation, respectively.
To confirm the reactivity of bismuth subnitrate as a reactant in forming bismuth Ill sulfide nanorods, additional assays were conducted to see if BSD could be purposefully recreated in the lab. In short, cheeses were manufactured with known amounts of ITS components and subjected to either the authentic volatile gasses produced by maturing cheeses or exposed directly to the hypothesized bismuth subnitrate co-reactant, hydrogen sulfide gas. […] No other ITS component formed black spots when so exposed. Furthermore, the susceptible sites formed identically black pigmentation when exposed to either authentic cheese volatiles or to hydrogen sulfide gas, thus confirming that hydrogen sulfide gas was the suspected co-reactant.

Consider `O=[N+]([O-])[O-].O=[N+]([O-])[O-].O=[N+]([O-])[O-].O=[N+]([O-])[O-].[Bi+3].[Bi+3].[Bi+3].[Bi+3].[Bi+3].[O-2].[OH-].[OH-].[OH-].[OH-].[OH-].[OH-].[OH-].[OH-].[OH-]` [bismuth subnitrate], for which the “Formation of black pigmentation (black spots) with nanorod structures” value is given as “formed identical black pigmentation”.
